Experiments:
[1] = Induction of CYP3A4 mRNA expression in human primary hepatocyte isolated from RAS donor at 0.1 to 10 uM incubated for 72 hrs by real-time PCR analysis; format: ADME, cell-based; details: hepatocytes, dose 0.1-10 µM
[2] = Plasma protein binding in CD-1 mouse at 1 uM incubated for 5 hrs in HTD dialysis in the presence of verapamil by LC-MS/MS analysis relative to control; format: ADME, cell-free; details: read-out: PPB (converted)
[3] = Induction of CYP3A4 mRNA expression in human primary hepatocyte isolated from DZM donor at 0.1 to 10 uM incubated for 72 hrs by real-time PCR analysis; format: ADME, cell-based; details: hepatocytes, dose 0.1-10 µM
LoVo [4] = assay: Antitumor activity against human LoVo cells xenografted in female Balb/c nude mouse assessed as tumor growth inhibition at 40 mg/kg QD, po measured every 3 days for 25 days relative to control; format: functional; details: 600 h, time 25 day, read-out: TGI
[5] = Toxicity in Sprague-Dawley rats assessed as effect on central nervous system at 10 to 40 mg/kg, po administrated as single dose upto 24 hrs; format: organism-based; details: rat, in vivo, dose 10-40 mg/kg
Hepatocyte [6] = assay: Cytotoxicity against human primary hepatocytes isolated from YND donor at 0.1 to 10 uM incubated for 72 hrs by cytotox-glo assay; format: toxicity, cell-based; details: dose 0.1-10 µM
Hepatocyte [7] = assay: Cytotoxicity against human primary hepatocytes isolated from DZM donor at 0.1 to 10 uM incubated for 72 hrs by cytotox-glo assay; format: toxicity, cell-based; details: dose 0.1-10 µM
[8] = Drug distribution in Sprague-Dawley rat liver at 5 mg/kg, IG administrated as single dose measured after 0.5 hrs by LC-MS/MS analysis; format: ADME, organism-based; details: in vivo, po
LoVo [9] = assay: Induction of apoptosis in human LoVo cells assessed as viable cells at 1 uM incubated for 24 hrs by Annexin-V-FITC-PI staining based flow cytometric analysis (reference value: 72.1 %); format: functional; details: read-out: Activity
[10] = Permeability across apical to basolateral side in human MDCK-MDR1 cells at 0.1 to 10 uM incubated for 120 mins by LC-MS/MS analysis; format: ADME, cell-based, Canis lupus familiaris; details: dog, mdck-mdr1, 2 h, dose 0.1-10 µM
NCI-H1703 = assay: Synergistic antitumor activity against human NCI-H1703 cells xenografted in female Balb/c nude mouse assessed as tumor growth inhibition co administered with Gemcitabine at 40 mg/kg QD, po administered as 3 days on and 4 days off schedule for 4 weeks relative to control; format: functional; details: NCI-H1703, 672 h, time 28 day, read-out: TGI
[11] = Drug metabolism in CD-1 mouse liver cells at 2 uM incubated upto 120 mins by LC-MS/MS analysis; format: ADME, cell-based; details: 2 h
LoVo [12] = assay: Induction of apoptosis in human LoVo cells assessed as early apoptotic cells at 1 uM incubated for 24 hrs by Annexin-V-FITC-PI staining based flow cytometric analysis (reference value: 13.7 %); format: functional
Cytochrome P450 2C9 = Cytochrome P450 2C9 (Homo sapiens, UniProt P11712); assay: Inhibition of CYP2C9 in human liver microsomes in the presence of NADPH incubated for 60 mins by LC-MS/MS analysis; format: ADME, Microsome
Chain of Cytochrome P450 2C9 (P11712 whole entry): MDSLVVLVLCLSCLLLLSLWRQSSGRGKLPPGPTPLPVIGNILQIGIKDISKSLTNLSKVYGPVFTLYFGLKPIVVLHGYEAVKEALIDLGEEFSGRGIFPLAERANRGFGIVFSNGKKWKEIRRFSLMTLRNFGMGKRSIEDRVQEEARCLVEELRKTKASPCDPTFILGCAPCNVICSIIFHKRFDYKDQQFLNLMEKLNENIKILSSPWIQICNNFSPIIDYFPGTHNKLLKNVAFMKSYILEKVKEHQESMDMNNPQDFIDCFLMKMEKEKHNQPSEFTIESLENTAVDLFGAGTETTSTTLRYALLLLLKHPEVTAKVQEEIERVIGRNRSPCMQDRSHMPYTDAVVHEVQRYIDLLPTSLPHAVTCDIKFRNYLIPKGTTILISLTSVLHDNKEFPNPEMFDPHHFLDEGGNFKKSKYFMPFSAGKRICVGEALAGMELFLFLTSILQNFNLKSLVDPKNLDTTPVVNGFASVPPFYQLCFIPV

[13] = Drug distribution in Sprague-Dawley rat brain at 5 mg/kg, IG administrated as single dose measured after 0.5 hrs by LC-MS/MS analysis; format: ADME, organism-based; details: po, read-out: Ct

Activity [1]: Active | fraction unbound at 5 h, 1 µM [2]: 0.361 | Activity [3]: Active | Drug uptake [8]: Active | permeability [10]: Permeable | Drug metabolism [11]: metabolite_detected | IC50 (Cytochrome P450 2C9): 32.8 µM | concentration at 0.5 h [13]: 4.47 ng/g
Compound: Cc1nn(-c2cccnc2)c(C)c1-c1cc(N2CC3CCC(C2)O3)nc2c(-c3ccn[nH]3)cnn12.O=C(O)/C=C/C(=O)O
inhibition in vivo at 40 mg/kg (LoVo [4]): 42.6% | Activity [5]: Non-toxic | Activity (Hepatocyte [6]): Non-toxic | Activity (Hepatocyte [7]): Non-toxic | viability at 1 µM (LoVo [9]): 65% | inhibition in vivo at 40 mg/kg (NCI-H1703): 92.9% | Activity (LoVo [12]): 18.2%
